The supplement of paper PMC10307832

Columns and labels:
Assay in all cases: relative viability (nuclei count vs DMSO), 5 days (fraction); higher = more cells survive
[1] = tested on: HARA
How it was run: (§1)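 A single step with final 0.05% Triton X-100, 1% formaldehyde and 1 ug/ml Hoechst fixed the cells and stained nuclei 5 days after treatment. Lung cancer cell lines in 1536-well plates had been treated by pin tool the day after seeding with one drug alone or a fixed anchor-drug dose plus five library-drug doses (not always all listed) in √10 steps, and nuclei were counted on 4× images. Relative viability is the ratio of nuclei in treated wells to nuclei in vehicle wells, taken as the median of duplicate plates.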

[2] = tested on: NCI-H2170
How it was run: as §1

[3] = tested on: A-427
How it was run: as §1

[4] = tested on: SK-MES-1
How it was run: as §1

[5] = tested on: NCI-H2009
How it was run: as §1

[6] = tested on: NCI-H2228
How it was run: as §1

[7] = tested on: SW 1573
How it was run: as §1

[8] = tested on: NCI-H1993
How it was run: as §1

[9] = tested on: NCI-H522
How it was run: as §1

[10] = tested on: LK-2
How it was run: as §1

[11] = tested on: NCI-H322M
How it was run: as §1

[12] = tested on: HOP-62
How it was run: as §1

[13] = tested on: NCI-H1792
How it was run: as §1

[14] = tested on: ABC-1
How it was run: as §1

[15] = tested on: LXF-289
How it was run: as §1

[16] = tested on: SW 900
How it was run: as §1

[17] = tested on: EMC-BAC-2
How it was run: as §1

[18] = tested on: NCI-H727
How it was run: as §1

[19] = tested on: NCI-H1944
How it was run: as §1

[20] = tested on: NCI-H3122
How it was run: as §1

[21] = tested on: PC-3 [JPC-3]
How it was run: as §1

O=c1cc(N2CCOCC2)oc2c(-c3cccc4c3sc3ccccc34)cccc12 + CC(=O)c1c(C)c2cnc(Nc3ccc(N4CCNCC4)cn3)nc2n(C2CCCC2)c1=O [Palbociclib] (partner 0.5 µM)
relative viability ([1]; first compound 0.01 µM): 0.253
relative viability ([1]; first compound 0.03162 µM): 0.252
relative viability ([1]; first compound 0.1 µM): 0.201
relative viability ([1]; first compound 0.3162 µM): 0.278
relative viability ([1]; first compound 1 µM): 0.307
relative viability ([2]; first compound 0.01 µM): 0.424
relative viability ([2]; first compound 0.03162 µM): 0.422
relative viability ([2]; first compound 0.1 µM): 0.408
relative viability ([2]; first compound 0.3162 µM): 0.405
relative viability ([2]; first compound 1 µM): 0.371
relative viability ([3]; first compound 0.01 µM): 0.533
relative viability ([3]; first compound 0.03162 µM): 0.52
relative viability ([3]; first compound 0.1 µM): 0.528
relative viability ([3]; first compound 0.3162 µM): 0.508
relative viability ([3]; first compound 1 µM): 0.513
relative viability ([4]; first compound 0.01 µM): 0.274
relative viability ([4]; first compound 0.03162 µM): 0.343
relative viability ([4]; first compound 0.1 µM): 0.359
relative viability ([4]; first compound 0.3162 µM): 0.341
relative viability ([4]; first compound 1 µM): 0.295
relative viability ([5]; first compound 0.01 µM): 0.234
relative viability ([5]; first compound 0.03162 µM): 0.25
relative viability ([5]; first compound 0.1 µM): 0.22
relative viability ([5]; first compound 0.3162 µM): 0.177
relative viability ([5]; first compound 1 µM): 0.158
relative viability ([6]; first compound 0.01 µM): 0.943
relative viability ([6]; first compound 0.03162 µM): 0.749
relative viability ([6]; first compound 0.1 µM): 0.802
relative viability ([6]; first compound 0.3162 µM): 0.683
relative viability ([6]; first compound 1 µM): 0.83
relative viability ([7]; first compound 0.01 µM): 0.349
relative viability ([7]; first compound 0.03162 µM): 0.436
relative viability ([7]; first compound 0.1 µM): 0.408
relative viability ([7]; first compound 0.3162 µM): 0.349
relative viability ([7]; first compound 1 µM): 0.394
relative viability ([8]; first compound 0.01 µM): 0.738
relative viability ([8]; first compound 0.03162 µM): 0.6
relative viability ([8]; first compound 0.1 µM): 0.658
relative viability ([8]; first compound 0.3162 µM): 0.64
relative viability ([8]; first compound 1 µM): 0.545
relative viability ([9]; first compound 0.01 µM): 0.887
relative viability ([9]; first compound 0.03162 µM): 1.25
relative viability ([9]; first compound 0.1 µM): 0.831
relative viability ([9]; first compound 0.3162 µM): 0.948
relative viability ([9]; first compound 1 µM): 0.977
relative viability ([10]; first compound 0.01 µM): 0.83
relative viability ([10]; first compound 0.03162 µM): 0.768
relative viability ([10]; first compound 0.1 µM): 0.587
relative viability ([10]; first compound 0.3162 µM): 0.638
relative viability ([10]; first compound 1 µM): 0.77
relative viability ([11]; first compound 0.01 µM): 0.484
relative viability ([11]; first compound 0.03162 µM): 0.472
relative viability ([11]; first compound 0.3162 µM): 0.462
relative viability ([11]; first compound 1 µM): 0.45
relative viability ([12]; first compound 0.01 µM): 0.452
relative viability ([12]; first compound 0.03162 µM): 0.451
relative viability ([12]; first compound 0.1 µM): 0.451
relative viability ([12]; first compound 0.3162 µM): 0.459
relative viability ([12]; first compound 1 µM): 0.415
relative viability ([13]; first compound 0.01 µM): 0.641
relative viability ([13]; first compound 0.03162 µM): 0.577
relative viability ([13]; first compound 0.1 µM): 0.658
relative viability ([13]; first compound 0.3162 µM): 0.668
relative viability ([13]; first compound 1 µM): 0.683
relative viability ([14]; first compound 0.01 µM): 0.644
relative viability ([14]; first compound 0.03162 µM): 0.797
relative viability ([14]; first compound 0.1 µM): 0.699
relative viability ([14]; first compound 0.3162 µM): 0.619
relative viability ([14]; first compound 1 µM): 0.578
relative viability ([15]; first compound 0.01 µM): 0.631
relative viability ([15]; first compound 0.03162 µM): 0.59
relative viability ([15]; first compound 0.1 µM): 0.593
relative viability ([15]; first compound 0.3162 µM): 0.583
relative viability ([15]; first compound 1 µM): 0.595
relative viability ([16]; first compound 0.03162 µM): 0.473
relative viability ([16]; first compound 0.1 µM): 0.567
relative viability ([16]; first compound 0.3162 µM): 0.507
relative viability ([16]; first compound 1 µM): 0.517
relative viability ([17]; first compound 0.01 µM): 0.525
relative viability ([17]; first compound 0.03162 µM): 0.541
relative viability ([17]; first compound 0.1 µM): 0.55
relative viability ([17]; first compound 0.3162 µM): 0.51
relative viability ([17]; first compound 1 µM): 0.497
relative viability ([18]; first compound 0.01 µM): 0.66
relative viability ([18]; first compound 0.03162 µM): 0.6
relative viability ([18]; first compound 0.1 µM): 0.624
relative viability ([18]; first compound 0.3162 µM): 0.699
relative viability ([18]; first compound 1 µM): 0.737
relative viability ([19]; first compound 0.01 µM): 0.331
relative viability ([19]; first compound 0.03162 µM): 0.332
relative viability ([19]; first compound 0.1 µM): 0.363
relative viability ([19]; first compound 0.3162 µM): 0.338
relative viability ([19]; first compound 1 µM): 0.32
relative viability ([20]; first compound 0.01 µM): 0.171
relative viability ([20]; first compound 0.03162 µM): 0.183
relative viability ([20]; first compound 0.1 µM): 0.167
relative viability ([20]; first compound 0.3162 µM): 0.177
relative viability ([20]; first compound 1 µM): 0.161
relative viability ([21]; first compound 0.01 µM): 0.548
relative viability ([21]; first compound 0.03162 µM): 0.519
relative viability ([21]; first compound 0.1 µM): 0.306
relative viability ([21]; first compound 0.3162 µM): 0.557
relative viability ([21]; first compound 1 µM): 0.511
